Test [1] addresses Transient receptor potential cation channel subfamily V member 1 (Homo sapiens) (UniProt Q8NER1). Nature of the test: Activity at human TRPV1 receptor expressed in HEK293 cells assessed as calcium influx relative to ionomycin. It counts as cell-based.
Test [2] shares this target. Briefly: Activity at human TRPV1 receptor expressed in HEK293 cells assessed as calcium influx in presence of 5-iodo-resiniferatoxin. In kind it is cell-based.

Transient receptor potential cation channel subfamily V member 1 (Homo sapiens), sequence (Q8NER1 whole entry): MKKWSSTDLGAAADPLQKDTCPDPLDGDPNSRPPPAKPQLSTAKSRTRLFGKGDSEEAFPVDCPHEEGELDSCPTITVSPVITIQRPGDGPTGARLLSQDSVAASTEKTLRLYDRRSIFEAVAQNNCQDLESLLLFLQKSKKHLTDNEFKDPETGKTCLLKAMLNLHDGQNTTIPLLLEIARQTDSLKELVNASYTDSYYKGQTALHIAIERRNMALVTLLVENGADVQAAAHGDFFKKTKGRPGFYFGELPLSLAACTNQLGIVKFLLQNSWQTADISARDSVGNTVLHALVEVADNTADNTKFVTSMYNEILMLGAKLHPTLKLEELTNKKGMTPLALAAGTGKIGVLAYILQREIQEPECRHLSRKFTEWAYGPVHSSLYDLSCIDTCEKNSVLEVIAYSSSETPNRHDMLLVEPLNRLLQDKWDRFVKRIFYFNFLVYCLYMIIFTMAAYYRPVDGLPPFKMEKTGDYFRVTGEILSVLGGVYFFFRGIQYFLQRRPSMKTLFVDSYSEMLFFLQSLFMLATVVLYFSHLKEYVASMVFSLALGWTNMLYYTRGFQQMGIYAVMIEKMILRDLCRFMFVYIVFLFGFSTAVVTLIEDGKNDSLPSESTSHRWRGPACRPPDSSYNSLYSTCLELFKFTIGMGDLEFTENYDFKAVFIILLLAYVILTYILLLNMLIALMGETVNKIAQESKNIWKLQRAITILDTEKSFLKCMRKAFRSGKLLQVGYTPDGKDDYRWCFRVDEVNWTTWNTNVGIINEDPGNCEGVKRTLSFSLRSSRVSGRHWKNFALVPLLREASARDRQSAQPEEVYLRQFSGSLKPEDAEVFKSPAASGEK

Turning to `COc1ccc(/C=C/C(=O)O[C@@H]2CCC(C)(C)C3CC=C(C=O)[C@H](C=O)[C@]32C)cc1` (some centres undefined), the Activity in test [1] is 40.4%; in test [2], 22%. Consider `CC1(C)CC[C@@H](O)[C@@]2(C)C1CC=C(C=O)[C@@H]2C=O` (some centres undefined), for which the Activity in test [1] stood at 0%. Still for that read-out and setting: to `COc1ccc(/C=C/C(=O)O[C@@H]2CCC(C)(C)C3CC=C(CO)[C@H](CO)[C@]32C)cc1` (some centres undefined) belongs 0%.

For the origin of these results see ChEMBL document CHEMBL1138255, “Enantioselective synthesis and vanilloid activity evaluation of 1-beta-(p-methoxycinnamoyl)polygodial, an antinociceptive compound from Drymis winteri barks” (Bioorg Med Chem Lett, 2007).
